Where “and” joins values, the source holds several entries; their conditions need not be identical. Identical values can stand only once.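 A five-concentration, 48-hour dose response in 96-well plates underlies each endpoint, interpolated linearly between surrounding concentrations. Abbreviation: GI50, concentration required for 50% inhibition of growth. TGI: total growth inhibition.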
Columns and labels:
Experiment in all cases: NCI anticancer screen, dose series, 48 h
T-47D breast = test system: T-47D breast
NCI/ADR-RES ovarian = test system: NCI/ADR-RES ovarian
TK-10 renal = test system: TK-10 renal
OVCAR-3 ovarian = test system: OVCAR-3 ovarian
HCT-116 colon = test system: HCT-116 colon
HOP-92 NSCLC = test system: HOP-92 NSCLC
NCI-H460 lung = test system: NCI-H460 lung
M14 melanoma = test system: M14 melanoma
PC-3 prostate = test system: PC-3 prostate
SW-620 colon = test system: SW-620 colon

| Structure (SMILES) | TGI (T-47D breast) | TGI (NCI/ADR-RES ovarian) | TGI (TK-10 renal) | TGI (OVCAR-3 ovarian) | TGI (HCT-116 colon) | TGI (HOP-92 NSCLC) | TGI (NCI-H460 lung) | TGI (M14 melanoma) | TGI (PC-3 prostate) | TGI (SW-620 colon) | GI50 (T-47D breast) | GI50 (NCI/ADR-RES ovarian) | GI50 (TK-10 renal) | GI50 (OVCAR-3 ovarian) | GI50 (HCT-116 colon) | GI50 (HOP-92 NSCLC) | GI50 (NCI-H460 lung) | GI50 (M14 melanoma) | GI50 (PC-3 prostate) | GI50 (SW-620 colon) |
| --- | --- | --- | --- | --- | --- | --- | --- | --- | --- | --- | --- | --- | --- | --- | --- | --- | --- | --- | --- | --- |
| C[N+](C)(C)CCC(=O)N1C/C(=C\c2ccccc2)C(=O)/C(=C/c2ccccc2)C1 | 4.41 µM | 3.3 µM | 23.6 µM | 9.31 µM | 2.98 µM | 38.7 µM | 22.4 µM | 7.54 µM | 6.97 µM | 2.68 µM |  |  |  |  |  |  |  |  |  |  |
| O=C(Nc1ccc(Cl)c(Cl)c1)C(=O)C(C1OC(=O)c2ccccc21)[N+](=O)[O-] (stereo not given) | > 100 µM | > 100 µM | > 100 µM | > 100 µM | > 100 µM | > 100 µM | > 100 µM | > 100 µM | > 100 µM | > 100 µM |  |  |  |  |  |  |  |  |  |  |
| COc1cc(C2c3cc4c(cc3[C@H](NC(=O)c3cccs3)C3COC(=O)[C@H]23)OCO4)cc(OC)c1OC (stereo not given in full) | > 100 µM | 0.459 µM | > 100 µM | > 100 µM | 1.05 µM | 70.3 µM | 10.8 µM | 33.7 µM | 0.0236 µM | > 100 µM |  |  |  |  |  |  |  |  |  |  |
| CC(C)c1ccc2c(N=Nc3ccc(S(N)(=O)=O)cc3)c(O)[nH]c2c1 | > 25 µM | > 25 µM | > 24 µM | 18.6 µM | > 25 µM | > 25 µM | > 16.4 µM | > 25 µM | > 25 µM | > 25 µM | > 15.3 µM | > 13.5 µM | > 12.1 µM | 6.21 µM | 11 µM | > 15.9 µM | 5.72 µM | > 25 µM | > 17.1 µM | > 25 µM |
| CCc1ccc(CCC(=O)Nc2ncc(Cc3cc(Cl)ccc3Cl)s2)o1 | > 50 µM | > 50 µM | > 50 µM | 4.76 µM | 9.1 µM | > 50 µM | > 50 µM | > 50 µM | > 50 µM | > 50 µM | 1.86 µM | 1.6 µM | 3.47 µM | 1.33 µM | 0.988 µM | 2.08 µM | 1.88 µM | 0.721 µM | 1.49 µM | 0.935 µM |
| CN(C)c1ccc(/C=C(\C#N)c2cc3ccccc3n2C)cc1 | > 100 µM | > 100 µM | > 100 µM | 1.27 µM | > 100 µM | > 23 µM | 4.4 µM | > 100 µM | > 100 µM | > 100 µM | 0.204 µM | 0.0895 µM | > 100 µM | 0.123 µM | 0.101 µM | 0.556 µM | 0.353 µM | 0.075 µM | 0.204 µM | 0.0898 µM |
| CC1(C)CC(=O)C2=C(C1)NC(SSC1=C(C#N)C(c3ccc(Br)cc3)C3=C(CC(C)(C)CC3=O)N1)=C(C#N)C2c1ccc(Br)cc1 (stereo not given) | > 100 µM and 119 µg/mL | > 100 µM and 64.1 µg/mL | > 100 µM and 150 µg/mL | > 100 µM and 150 µg/mL | > 100 µM and 150 µg/mL | > 100 µM and 116 µg/mL | > 100 µM and 150 µg/mL | > 100 µM and 150 µg/mL | > 100 µM and 150 µg/mL | > 100 µM and 56.1 µg/mL | 35 µg/mL | 28.9 µg/mL | > 150 µg/mL | > 150 µg/mL | 89.8 µg/mL | 46.4 µg/mL | > 150 µg/mL | 51.4 µg/mL | 91.4 µg/mL | 29.3 µg/mL |
| CN(C)CCCNC(=O)c1cc(NC(=O)CCNC(=O)c2ccc3c(c2)C(=O)c2ccccc2C3=O)cn1C | 75.3 µM | > 100 µM | > 100 µM | > 100 µM | > 100 µM | > 100 µM | > 100 µM | > 100 µM | > 100 µM | > 100 µM | 32.5 µM | > 100 µM | > 100 µM | 33.2 µM | > 100 µM | 58.9 µM | > 100 µM | > 100 µM | > 100 µM | > 100 µM |
| C[As](C)Sc1ccnc(S[As](C)C)n1 | > 100 µM | > 25.9 µM | 14.3 µM | 22 µM | > 34.8 µM | 5 µM | > 58.6 µM | > 44.9 µM | 30.8 µM | 19.5 µM | 22.9 µM | 7.72 µM | 2.64 µM | 3.91 µM | 2.13 µM | 0.774 µM | 19.1 µM | 3.94 µM | 3.14 µM | 1.4 µM |
| C=CCCC(O)c1ccc(C(O)CCCCCCCCCCCC)o1 (stereo not given) | > 100 µM | 45.8 µM | 30.2 µM | 35.7 µM | 28.6 µM | 51.2 µM | > 100 µM | 35.3 µM | 47.8 µM | 37.9 µM | 34.3 µM | 20.9 µM | 16.4 µM | 18.7 µM | 14.8 µM | 25.5 µM | > 100 µM | 17.8 µM | 22.8 µM | 17.9 µM |
